# Data from ChEMBL document CHEMBL1139626, “Total asymmetric synthesis of (-)-conduramine B-1 and of its enantiomer. N-Benzyl derivatives of conduramine B-1 are beta-glucosidase inhibitors” (Bioorg Med Chem Lett, 2005).
# Active and inactive are the calls of the source. No cut-off for these calls is given here.
# Experiments:
# [1] = target: T1, Glucoamylase 1 (Rhizopus oryzae) (UniProt P07683); experiment: Inhibition against Amyloglucosidase from Rhizopus mold at 1 mM; (ni=no inhibition)
# T1 sequence (whole entry): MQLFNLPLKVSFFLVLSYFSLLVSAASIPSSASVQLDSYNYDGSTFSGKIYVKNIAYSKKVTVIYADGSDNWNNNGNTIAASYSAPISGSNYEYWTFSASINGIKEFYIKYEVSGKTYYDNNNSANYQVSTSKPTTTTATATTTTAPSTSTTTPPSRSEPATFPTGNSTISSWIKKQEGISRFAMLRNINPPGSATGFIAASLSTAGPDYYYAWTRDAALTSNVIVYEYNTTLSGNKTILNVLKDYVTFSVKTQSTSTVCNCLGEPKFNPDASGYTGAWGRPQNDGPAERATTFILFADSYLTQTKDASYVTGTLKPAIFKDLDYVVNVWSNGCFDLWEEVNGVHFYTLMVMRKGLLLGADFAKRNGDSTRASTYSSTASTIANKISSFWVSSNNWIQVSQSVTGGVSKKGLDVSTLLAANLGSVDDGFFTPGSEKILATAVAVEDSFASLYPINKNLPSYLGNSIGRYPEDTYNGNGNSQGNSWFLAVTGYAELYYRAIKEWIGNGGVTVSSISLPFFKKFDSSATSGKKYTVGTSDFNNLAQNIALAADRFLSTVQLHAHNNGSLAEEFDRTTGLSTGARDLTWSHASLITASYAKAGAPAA
# Prunus dulcis [2] = experiment: Percent inhibition against Beta Glucosidase from Almonds at 1 mM
# [3] = Inhibition against Alpha Glucosidase from yeast at 1 mM; (ni=no inhibition)
# [4] = target: Beta-glucosidase A (Caldicellulosiruptor saccharolyticus) (UniProt P10482); experiment: Percent inhibition against Beta Glucosidase from Caldocellum saccharolyticum at 1 mM
# [5] = target: T2, Alpha-glucosidase (Oryza sativa Japonica Group) (UniProt Q9LGC6); experiment: Inhibition against Alpha Glucosidase from rice at 1 mM; (ni=no inhibition)
# T2 sequence (whole entry): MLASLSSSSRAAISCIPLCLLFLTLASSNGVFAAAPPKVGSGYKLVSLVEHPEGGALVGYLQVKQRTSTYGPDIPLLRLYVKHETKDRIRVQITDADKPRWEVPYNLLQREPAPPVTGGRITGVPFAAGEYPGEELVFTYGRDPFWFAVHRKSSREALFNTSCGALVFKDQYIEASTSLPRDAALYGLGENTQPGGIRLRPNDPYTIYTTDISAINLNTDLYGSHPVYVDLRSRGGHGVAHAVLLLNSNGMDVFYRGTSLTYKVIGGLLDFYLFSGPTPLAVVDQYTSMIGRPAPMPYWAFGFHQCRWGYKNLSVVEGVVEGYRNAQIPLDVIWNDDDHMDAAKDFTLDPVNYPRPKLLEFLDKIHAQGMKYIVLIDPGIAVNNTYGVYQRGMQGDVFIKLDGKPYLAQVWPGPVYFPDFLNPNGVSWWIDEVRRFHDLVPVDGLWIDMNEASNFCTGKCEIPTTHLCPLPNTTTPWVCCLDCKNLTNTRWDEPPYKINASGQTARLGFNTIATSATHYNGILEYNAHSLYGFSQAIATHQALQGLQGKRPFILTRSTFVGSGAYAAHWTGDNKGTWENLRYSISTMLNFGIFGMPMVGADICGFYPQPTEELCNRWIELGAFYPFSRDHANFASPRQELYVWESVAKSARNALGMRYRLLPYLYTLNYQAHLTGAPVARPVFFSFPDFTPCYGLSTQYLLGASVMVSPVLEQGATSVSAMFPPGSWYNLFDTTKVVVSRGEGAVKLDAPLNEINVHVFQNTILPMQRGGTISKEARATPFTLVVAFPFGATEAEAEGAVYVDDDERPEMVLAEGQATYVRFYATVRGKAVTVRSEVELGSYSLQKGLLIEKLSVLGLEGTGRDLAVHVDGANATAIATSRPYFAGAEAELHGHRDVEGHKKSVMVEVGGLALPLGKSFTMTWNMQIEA
# [6] = target: Glucoamylase (Aspergillus niger) (UniProt P69328); experiment: Inhibition against Amyloglucosidase from Aspergillus niger at 1 mM; (ni=no inhibition)
# [7] = target: T3, Exo-1,4-beta-xylosidase xlnD (Aspergillus niger) (UniProt O00089); experiment: Inhibition against Beta-xylosidase from Aspergillus niger at 1 mM; (ni=no inhibition)
# T3 sequence (whole entry): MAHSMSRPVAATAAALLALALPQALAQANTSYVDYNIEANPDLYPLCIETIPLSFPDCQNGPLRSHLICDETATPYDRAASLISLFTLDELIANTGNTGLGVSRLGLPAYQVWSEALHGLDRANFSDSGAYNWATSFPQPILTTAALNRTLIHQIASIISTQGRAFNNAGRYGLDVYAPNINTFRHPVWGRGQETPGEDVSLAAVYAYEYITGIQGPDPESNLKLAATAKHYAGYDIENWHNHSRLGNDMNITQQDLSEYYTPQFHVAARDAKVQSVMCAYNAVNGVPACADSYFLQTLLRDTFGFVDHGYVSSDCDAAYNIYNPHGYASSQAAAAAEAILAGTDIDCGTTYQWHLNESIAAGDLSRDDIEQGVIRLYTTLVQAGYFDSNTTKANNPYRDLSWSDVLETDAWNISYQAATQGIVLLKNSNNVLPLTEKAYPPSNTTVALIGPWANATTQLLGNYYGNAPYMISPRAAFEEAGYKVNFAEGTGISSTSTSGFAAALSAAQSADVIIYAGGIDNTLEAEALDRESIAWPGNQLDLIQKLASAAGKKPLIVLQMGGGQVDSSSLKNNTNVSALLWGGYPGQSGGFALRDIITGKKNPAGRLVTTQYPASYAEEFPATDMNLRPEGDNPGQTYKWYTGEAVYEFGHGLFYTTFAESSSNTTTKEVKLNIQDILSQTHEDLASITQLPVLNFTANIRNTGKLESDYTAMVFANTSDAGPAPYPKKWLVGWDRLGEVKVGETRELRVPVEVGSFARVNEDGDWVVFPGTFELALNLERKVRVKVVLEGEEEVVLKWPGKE
# Prunus dulcis [8] = experiment: Inhibition against Beta Glucosidase from Almonds at 1 mM; (ni=no inhibition)
# [9] = target: Beta-glucosidase A (Caldicellulosiruptor saccharolyticus) (UniProt P10482); experiment: Inhibition against Beta Glucosidase from Caldocellum saccharolyticum at 1 mM; (ni=no inhibition)
# [10] = target: Glucoamylase (Aspergillus niger) (UniProt P69328); experiment: Percent inhibition against Amyloglucosidase from Aspergillus niger at 1 mM concentration
# [11] = target: T1, Glucoamylase 1 (Rhizopus oryzae); experiment: Percent inhibition against Amyloglucosidase from Rhizopus mold at 1 mM
# [12] = Inhibitory concentration against Beta Glucosidase from Almonds; set-up: species or system Prunus dulcis
# [13] = Inhibitory activity against Beta Glucosidase from Almonds; set-up: species or system Prunus dulcis
# Glucoamylase (Aspergillus niger), sequence (P69328 whole entry): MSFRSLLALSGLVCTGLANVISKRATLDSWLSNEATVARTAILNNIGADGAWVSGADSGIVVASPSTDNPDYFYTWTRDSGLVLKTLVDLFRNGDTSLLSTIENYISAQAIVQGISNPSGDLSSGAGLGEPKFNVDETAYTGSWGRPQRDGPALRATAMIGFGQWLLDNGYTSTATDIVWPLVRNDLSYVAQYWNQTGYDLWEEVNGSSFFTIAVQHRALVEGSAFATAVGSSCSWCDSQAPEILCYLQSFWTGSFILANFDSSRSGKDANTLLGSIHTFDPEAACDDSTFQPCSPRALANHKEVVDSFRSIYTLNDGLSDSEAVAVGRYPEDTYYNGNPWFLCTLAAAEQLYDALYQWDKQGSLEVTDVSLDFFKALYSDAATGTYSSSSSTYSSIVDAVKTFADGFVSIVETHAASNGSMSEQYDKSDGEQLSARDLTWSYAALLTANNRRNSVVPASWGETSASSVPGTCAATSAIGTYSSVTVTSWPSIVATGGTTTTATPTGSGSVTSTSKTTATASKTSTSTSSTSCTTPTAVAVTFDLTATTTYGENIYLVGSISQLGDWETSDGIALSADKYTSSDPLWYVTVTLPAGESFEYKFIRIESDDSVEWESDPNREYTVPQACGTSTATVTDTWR
# Beta-glucosidase A (Caldicellulosiruptor saccharolyticus), sequence (P10482 whole entry): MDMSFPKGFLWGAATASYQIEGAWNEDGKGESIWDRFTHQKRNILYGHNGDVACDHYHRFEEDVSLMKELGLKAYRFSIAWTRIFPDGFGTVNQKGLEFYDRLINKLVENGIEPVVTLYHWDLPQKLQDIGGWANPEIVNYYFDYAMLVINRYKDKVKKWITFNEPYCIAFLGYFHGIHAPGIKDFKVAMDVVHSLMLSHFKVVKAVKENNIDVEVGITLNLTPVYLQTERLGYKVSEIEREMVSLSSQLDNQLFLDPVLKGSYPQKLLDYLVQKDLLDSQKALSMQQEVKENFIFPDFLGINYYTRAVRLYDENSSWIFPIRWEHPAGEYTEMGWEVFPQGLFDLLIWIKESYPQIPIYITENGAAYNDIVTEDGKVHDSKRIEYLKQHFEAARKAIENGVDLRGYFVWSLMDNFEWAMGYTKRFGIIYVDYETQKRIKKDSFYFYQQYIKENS
inhibition [1],inhibition (Prunus dulcis [2]) [%],inhibition [3],inhibition [4] [%],inhibition [5],inhibition [6],inhibition [7],inhibition (Prunus dulcis [8]),inhibition [9],inhibition [10] [%],inhibition [11] [%],IC50 [12] [µM],Ki [13] [µM],SMILES
inactive,97,inactive,94,inactive,inactive,inactive,,,,,,,OC1C=CC(NCc2ccc(-c3ccccc3)cc2)C(O)C1O (stereo in doubt; 4i)
inactive,,inactive,,inactive,inactive,inactive,inactive,inactive,,,,,NC1C=CC(O)C(O)C1O (stereo in doubt; (+)-3)
inactive,97,inactive,71,inactive,inactive,inactive,,,,,,,OC1C=CC(NCc2ccc(Oc3ccccc3)cc2)C(O)C1O (stereo in doubt; 4j)
inactive,,inactive,,inactive,inactive,inactive,inactive,inactive,,,,,OC1C=CC(NCc2ccc(Oc3ccccc3)cc2)C(O)C1O (stereo in doubt)
inactive,36,inactive,,inactive,inactive,inactive,,inactive,,,,,OC1C=CC(N(CCc2ccccc2)CCc2ccccc2)C(O)C1O (racemic)
,26,inactive,,inactive,,inactive,,inactive,94,85,,,Oc1ccc(CNC2C=CC(O)C(O)C2O)cc1 (stereo in doubt)
,51,inactive,,inactive,,inactive,,inactive,63,72,,,OC1C=CC(NCc2ccccc2)C(O)C1O (stereo in doubt)
,51,inactive,,inactive,,inactive,,inactive,45,72,,,OC1C=CC(NCc2ccc(Cl)cc2)C(O)C1O (stereo in doubt)
inactive,,inactive,,inactive,inactive,inactive,inactive,inactive,,,,,"COc1cc(O)c(CNC2C=CC(O)C(O)C2O)c(Br)c1 (single isomer, unassigned)"
inactive,,inactive,,inactive,inactive,inactive,inactive,inactive,,,,,"NC1C=CC(O)C(O)C1O (single isomer, unassigned; (-))"
inactive,56,inactive,,inactive,inactive,inactive,,inactive,,,,,OC1C=CC(NCc2ccc(-c3ccccc3)cc2)C(O)C1O (stereo in doubt)
,,,,,,,,,,,52,25,COc1ccc(CNC2C=CC(O)C(O)C2O)cc1 (stereo in doubt; 4g)
inactive,96,inactive,84,inactive,inactive,inactive,,,,,,,OC1C=CC(NCc2ccc(Cl)cc2)C(O)C1O (stereo in doubt; 4h)
inactive,,inactive,83,inactive,inactive,inactive,inactive,,,,,,CCCCCCCCN(CCCCCCCC)C1C=CC(O)C(O)C1O (racemic)
,,,,,,,,,,,72,,Oc1ccc(CNC2C=CC(O)C(O)C2O)cc1 (stereo in doubt; 4f)
,,inactive,,inactive,,inactive,inactive,inactive,42,41,,,Oc1ccccc1CNC1C=CC(O)C(O)C1O (stereo in doubt)
,,,,,,,,,,,32,10,OC1C=CC(NCc2ccccc2)C(O)C1O (stereo in doubt; 4e)
inactive,,inactive,43,inactive,inactive,inactive,inactive,,,,,,COc1cc(O)c(CNC2C=CC(O)C(O)C2O)c(Br)c1 (stereo in doubt; 4l)
,51,inactive,,inactive,,inactive,,inactive,63,72,,,COc1ccc(CNC2C=CC(O)C(O)C2O)cc1 (stereo in doubt)

SMILES,inhibition [1],inhibition (Prunus dulcis [2]) [%],inhibition [3],inhibition [4] [%],inhibition [5],inhibition [6],inhibition [7],inhibition (Prunus dulcis [8]),inhibition [9],inhibition [10] [%],inhibition [11] [%],IC50 [12] [µM],Ki [13] [µM]
CCCCCCNC1C=CC(O)C(O)C1O (racemic),inactive,92,inactive,,inactive,inactive,inactive,,,,,32,
CCCN(CCC)C1C=CC(O)C(O)C1O (racemic),inactive,36,inactive,,inactive,inactive,inactive,,inactive,,,,
OC1C=CC(NCCc2ccccc2)C(O)C1O (racemic),inactive,86,inactive,,inactive,inactive,inactive,,,,,32,
